Laboratory results: patent US4677100A, “Cephalosporin derivatives” (Banyu Pharmaceutical Co., Ltd., priority 1984, dated 1987)
Converted amounts (≈) assume the structure as drawn.

Tests used:
[1] = tested on: S. aureus Smith; experiment: treatment of experimental infection of mice; assay type: in vivo
[2] = tested on: P. aeruginosa D15; experiment: treatment of experimental infection of mice; assay type: in vivo
[3] = tested on: Gram-positive bacteria and Gram-negative bacteria; experiment: antibacterial activity, general statement; assay type: cell-based; settings: sensitive and resistant bacteria
Protocol: (§1) The minimum inhibitory concentrations (MIC: μg/ml) of the compounds of the present invention against various microorganisms were measured by an agar plate dilution method (inoculum size: 10^6 CFU/ml) by using Sensitivity Disk Agar (Nissui) in comparison with Cefotaxime and Ceftazidime as comparative compounds.

[4] = tested on: P. maltophilia IID 1275; experiment: MIC, agar plate dilution method; assay type: cell-based, Pseudomonas maltophilia; settings: for MIC: Stenotrophomonas maltophilia, IID1275, P. maltophilia IID 1275, 10^6 CFU/ml, Sensitivity Disk Agar, read-out: Minimum Inhibitory Concentration
Protocol: as §1

[5] = tested on: P. aeruginosa AKR17; experiment: MIC, agar plate dilution method; assay type: cell-based, Pseudomonas aeruginosa; settings: for antibacterial activity relative to the compound of Reference Example: Pseudomonas aeruginosa AKR-17, resistant to all cephalosporins including Ceftazidime; for MIC: Pseudomonas aeruginosa, P. aeruginosa AKR17, 10^6 CFU/ml, Sensitivity Disk Agar, read-out: Minimum Inhibitory Concentration
Protocol: as §1

[6] = tested on: P. aeruginosa AK109; experiment: MIC, agar plate dilution method; assay type: cell-based, Pseudomonas aeruginosa; settings: for antibacterial activity relative to the compound of Reference Example: Pseudomonas aeruginosa AK109; for MIC: Pseudomonas aeruginosa, P. aeruginosa AK109, 10^6 CFU/ml, Sensitivity Disk Agar, read-out: Minimum Inhibitory Concentration
Protocol: as §1

[7] = tested on: E. coli Juhl; experiment: treatment of experimental infection of mice; assay type: in vivo
[8] = tested on: S. aureus JS-1; experiment: MIC, agar plate dilution method; assay type: cell-based; settings: Staphylococcus aureus, JS1; S. aureus JS-1; 10^6 CFU/ml; Sensitivity Disk Agar; read-out: Minimum Inhibitory Concentration
Protocol: as §1

[9] = tested on: S. marcescens No. 16-2; experiment: MIC, agar plate dilution method; assay type: cell-based; settings: Serratia marcescens, NO.162; S. marcescens No. 16-2; 10^6 CFU/ml; Sensitivity Disk Agar; read-out: Minimum Inhibitory Concentration
Protocol: as §1

[10] = tested on: E. coli ML1410/Rte16; experiment: MIC, agar plate dilution method; assay type: cell-based; settings: Escherichia coli, ML1410/RTE16, read-out: Minimum Inhibitory Concentration
Protocol: as §1

[11] = tested on: K. pneumoniae No. 42; experiment: MIC, agar plate dilution method; assay type: cell-based; settings: Klebsiella pneumoniae; K. pneumoniae No. 42; 10^6 CFU/ml; Sensitivity Disk Agar; read-out: Minimum Inhibitory Concentration
Protocol: as §1

[12] = tested on: E. coli W3630/Rms213; experiment: MIC, agar plate dilution method; assay type: cell-based; settings: Escherichia coli, W3630/RMS213, read-out: Minimum Inhibitory Concentration
Protocol: as §1

[13] = tested on: P. mirabilis JY10; experiment: MIC, agar plate dilution method; assay type: cell-based; settings: Proteus mirabilis; P. mirabilis JY10; 10^6 CFU/ml; Sensitivity Disk Agar; read-out: Minimum Inhibitory Concentration
Protocol: as §1

[14] = tested on: A. calcoaceticus No. 14; experiment: MIC, agar plate dilution method; assay type: cell-based; settings: Acinetobacter calcoaceticus; for MIC: A. calcoaceticus No. 14, 10^6 CFU/ml, Sensitivity Disk Agar, read-out: Minimum Inhibitory Concentration
Protocol: as §1

[15] = tested on: S. aureus NIHJJC-1; experiment: MIC, agar plate dilution method; assay type: cell-based; settings: Staphylococcus aureus, NIHJJC1; S. aureus NIHJJC-1; 10^6 CFU/ml; Sensitivity Disk Agar; read-out: Minimum Inhibitory Concentration
Protocol: as §1

[16] = tested on: E. coli W3630/Rms212; experiment: MIC, agar plate dilution method; assay type: cell-based; settings: Escherichia coli, W3630/RMS212, read-out: Minimum Inhibitory Concentration
Protocol: as §1

[17] = tested on: E. coli NIHJJC-2; experiment: MIC, agar plate dilution method; assay type: cell-based; settings: Escherichia coli, NIHJJC2; E. coli NIHJJC-2; 10^6 CFU/ml; Sensitivity Disk Agar; read-out: Minimum Inhibitory Concentration
Protocol: as §1

[18] = tested on: E. coli C/Rms149; experiment: MIC, agar plate dilution method; assay type: cell-based; settings: Escherichia coli, read-out: Minimum Inhibitory Concentration
Protocol: as §1

[19] = tested on: P. vulgaris OB1043; experiment: MIC, agar plate dilution method; assay type: cell-based; settings: Proteus vulgaris; P. vulgaris OB1043; 10^6 CFU/ml; Sensitivity Disk Agar; read-out: Minimum Inhibitory Concentration
Protocol: as §1

[20] = tested on: C. freundii No. 7; experiment: MIC, agar plate dilution method; assay type: cell-based; settings: Citrobacter freundii; C. freundii No. 7; 10^6 CFU/ml; Sensitivity Disk Agar; read-out: Minimum Inhibitory Concentration
Protocol: as §1

[21] = tested on: E. cloaceae Nek 39; experiment: MIC, agar plate dilution method; assay type: cell-based; settings: E. cloaceae Nek 39; 10^6 CFU/ml; Sensitivity Disk Agar; read-out: Minimum Inhibitory Concentration
Protocol: as §1

[22] = tested on: P. vulgaris No. 33; experiment: MIC, agar plate dilution method; assay type: cell-based; settings: Proteus vulgaris; P. vulgaris No. 33; 10^6 CFU/ml; Sensitivity Disk Agar; read-out: Minimum Inhibitory Concentration
Protocol: as §1

[23] = tested on: E. coli CSH2; experiment: MIC, agar plate dilution method; assay type: cell-based; settings: Escherichia coli, 10^6 CFU/ml, Sensitivity Disk Agar, read-out: Minimum Inhibitory Concentration
Protocol: as §1

[24] = tested on: E. coli CSH; experiment: MIC, agar plate dilution method; assay type: cell-based; settings: Escherichia coli, read-out: Minimum Inhibitory Concentration
Protocol: as §1

[25] = tested on: P. cepacia 23; experiment: MIC, agar plate dilution method; assay type: cell-based, Pseudomonas cepacia; settings: for MIC: Burkholderia cepacia, P. cepacia 23, 10^6 CFU/ml, Sensitivity Disk Agar, read-out: Minimum Inhibitory Concentration; for antibacterial activity relative to the compound of Reference Example: Pseudomonas cepacia 23
Protocol: as §1

Q: `CON=C(C(=O)NC1C(=O)N2C(C(=O)[O-])=C(C[N+]3(C)Cc4cc(O)c(O)cc4C3)CSC12)c1csc(N)n1` (centres unmarked) [Ex. 4-D, 7-[(Z)-2-(2-aminothiazol-4-yl)-2-methoxyiminoacetamido]-3-(5,6-dihydroxy-2-methyl-2-isoindolinium)methyl-3-cephem-4-carboxylate] was tested. Which ED50 ([1]; Staphylococcus aureus, mice infected with S. aureus Smith, read-out: ED50) did it give?
A: The ED50 was 6.2 mg/kg.

Q: What about the “efficacy relative to Ceftazidime” value ([1]; experimental infections of mice caused by S. aureus Smith) of the same compound?
A: The value was “about twice as high”.

Q: What about the ED50 ([2]; Pseudomonas aeruginosa, mice infected with P. aeruginosa D15, read-out: ED50) of the same compound?
A: Its ED50 is 14 mg/kg.

Q: And the “efficacy relative to Ceftazidime” value ([2]; experimental infections of mice caused by P. aeruginosa D15)?
A: The value was “about twice as high”.

Q: And the “antibacterial activity (in words)” value [3]?
A: The value was “particularly strong antibacterial activities”.

Q: What about the MIC [4] of the same compound?
A: The MIC was 25 µg/mL (≈ 44.6 µM).

Q: And the “antibacterial activity relative to the compound of Reference Example” value [5]?
A: Its value is “at least 32 times”.

Q: And the MIC [5]?
A: The MIC was 0.78 µg/mL (≈ 1.39 µM).

Q: What about the “antibacterial activity relative to the compound of Reference Example” value [6] of the same compound?
A: The value was “at least 16 times”.

Q: What about the MIC [6] of the same compound?
A: Its MIC is 0.1 µg/mL (≈ 0.178 µM).

Q: And the ED50 ([7]; Escherichia coli, mice infected with E. coli Juhl, read-out: ED50)?
A: Its ED50 is 0.12 mg/kg.

Q: What about the “efficacy relative to Ceftazidime” value ([7]; experimental infections of mice caused by E. coli Juhl) of the same compound?
A: The value was “about twice as high”.

Q: What about the MIC [8] of the same compound?
A: The MIC was 25 µg/mL (≈ 44.6 µM).

Q: What about the MIC [9] of the same compound?
A: The MIC was 6.25 µg/mL (≈ 11.1 µM).

Q: What about the MIC [10] of the same compound?
A: The MIC was 0.1 µg/mL (≈ 0.178 µM).

Q: And the MIC [11]?
A: Its MIC is 0.2 µg/mL (≈ 0.357 µM).

Q: What about the MIC [12] of the same compound?
A: Its MIC is 0.78 µg/mL (≈ 1.39 µM).

Q: And the MIC [13]?
A: The MIC was 0.39 µg/mL (≈ 0.696 µM).

Q: And the “antibacterial activity relative to the compound of Reference Example” value [14]?
A: Its value is “at least 32 times”.

Q: And the MIC [14]?
A: Its MIC is 0.2 µg/mL (≈ 0.357 µM).

Q: And the MIC [15]?
A: Its MIC is 6.25 µg/mL (≈ 11.1 µM).

Q: And the MIC [16]?
A: The MIC was at most 0.05 µg/mL.

Q: And the MIC [17]?
A: The MIC was at most 0.05 µg/mL.

Q: And the MIC [18]?
A: Its MIC is 0.1 µg/mL (≈ 0.178 µM).

Q: And the MIC [19]?
A: Its MIC is 3.12 µg/mL (≈ 5.57 µM).

Q: What about the MIC [20] of the same compound?
A: Its MIC is 6.25 µg/mL (≈ 11.1 µM).

Q: What about the MIC [21] of the same compound?
A: Its MIC is at most 0.05 µg/mL.

Q: And the MIC [22]?
A: The MIC was 0.78 µg/mL (≈ 1.39 µM).

Q: What about the MIC [23] of the same compound?
A: The MIC was 0.2 µg/mL (≈ 0.357 µM).

Q: And the MIC [24]?
A: The MIC was 1.56 µg/mL (≈ 2.78 µM).

Q: And the MIC [25]?
A: Its MIC is 0.2 µg/mL (≈ 0.357 µM).

Q: What about the “antibacterial activity relative to the compound of Reference Example” value [25] of the same compound?
A: The value was “at least 32 times”.

Q: Which “antibacterial activity (in words)” value [3] does the source give for `C[N+]1(CC2=C(C(=O)[O-])N3C(=O)C(NC(=O)C(=NOC4CCCC4)c4csc(N)n4)C3SC2)Cc2cc(O)c(O)cc2C1` (centres unmarked) [Ex. 13-D, 7-[(Z)-2-(2-aminothiazol-4-yl)-2-cyclopentyloxyiminoacetamido]-3-(5,6-dihydroxy-2-methyl-2-isoindolinium)methyl-3-cephem-4-carboxylate] here?
A: Its value is “particularly strong antibacterial activities”.

Q: What about the “antibacterial activity relative to the compound of Reference Example” value ([4]; Pseudomonas maltophilia resistant to all cephalosporins) of the same compound?
A: The value was “at least twice as strong”.

Q: What about the MIC [4] of the same compound?
A: Its MIC is 12.5 µg/mL (≈ 20.3 µM).

Q: What about the “antibacterial activity relative to the compound of Reference Example” value [5] of the same compound?
A: Its value is “at least 32 times”.

Q: And the MIC [5]?
A: Its MIC is 0.39 µg/mL (≈ 0.634 µM).

Q: And the “antibacterial activity relative to the compound of Reference Example” value [6]?
A: The value was “at least 16 times”.

Q: And the MIC [6]?
A: Its MIC is 0.05 µg/mL (≈ 0.0813 µM).

Q: And the MIC [8]?
A: The MIC was 12.5 µg/mL (≈ 20.3 µM).

Q: What about the MIC [9] of the same compound?
A: Its MIC is 0.78 µg/mL (≈ 1.27 µM).

Q: What about the MIC [10] of the same compound?
A: The MIC was 0.05 µg/mL (≈ 0.0813 µM).

Q: And the MIC [11]?
A: Its MIC is 0.1 µg/mL (≈ 0.163 µM).

Q: What about the MIC [12] of the same compound?
A: Its MIC is 0.05 µg/mL (≈ 0.0813 µM).

Q: And the MIC [13]?
A: Its MIC is 0.05 µg/mL (≈ 0.0813 µM).

Q: What about the “antibacterial activity relative to the compound of Reference Example” value [14] of the same compound?
A: The value was “at least 32 times”.

Q: And the MIC [14]?
A: The MIC was 0.78 µg/mL (≈ 1.27 µM).

Q: What about the MIC [15] of the same compound?
A: Its MIC is 3.12 µg/mL (≈ 5.08 µM).

Q: What about the MIC [16] of the same compound?
A: The MIC was 0.025 µg/mL (≈ 0.0407 µM).

Q: And the MIC [17]?
A: The MIC was 0.05 µg/mL (≈ 0.0813 µM).

Q: And the MIC [18]?
A: The MIC was 0.05 µg/mL (≈ 0.0813 µM).

Q: And the MIC [19]?
A: Its MIC is 0.2 µg/mL (≈ 0.325 µM).

Q: What about the MIC [20] of the same compound?
A: The MIC was 1.56 µg/mL (≈ 2.54 µM).

Q: What about the MIC [21] of the same compound?
A: Its MIC is 0.05 µg/mL (≈ 0.0813 µM).

Q: And the MIC [22]?
A: The MIC was 0.1 µg/mL (≈ 0.163 µM).

Q: And the MIC [23]?
A: Its MIC is 0.1 µg/mL (≈ 0.163 µM).

Q: What about the MIC [24] of the same compound?
A: The MIC was 0.1 µg/mL (≈ 0.163 µM).

Q: What about the MIC [25] of the same compound?
A: The MIC was 0.1 µg/mL (≈ 0.163 µM).

Q: And the “antibacterial activity relative to the compound of Reference Example” value [25]?
A: Its value is “at least 32 times”.
